Results from patent US20210361639A1, “SOLID COMPOSITIONS OF ACTIVES, PROCESSES FOR PREPARING SAME AND USES OF SUCH SOLID COMPOSITIONS” (The University of Liverpool, priority 2018, published 2021).

Columns and labels:
[1] = Multiple oral dose (every 6 hours) pharmacokinetics of atazanavir; format: in vivo, Wistar rats; settings: multiple oral dose 10 mg/kg atazanavir every 6 hours, steady state, rat plasma
Experimental: All animal work was conducted in accordance with the Animals (Scientific Procedures) Act 1986 (ASPA) implemented by the UK Home Office. The rodents were housed with environmental enrichment and a 12 h light/dark cycle at 21° C.±2° C. Free access to food and water was provided at all times. Following 7-days acclimatisation, adult male Wistar rats (280-330 g) were dosed with 10 mg Kg^−1 atazanavir at 5 μCi/mg, either as a conventional [^3H]-atazanavir preparation (<5% DMSO) or as a [^3H]^ATVSDNF68/T20 nanodispersion using a 7-cm curved gavage needle. Subsequent doses were administered at 6 hour intervals. Subsequently, trough blood samples were collected (0.15 ml) every 12 h post-dosing from the lateral tail vein. Steady state PK blood samples were taken at 60, 61, 62, 62.5, 63, 64 and 66 h post first dose. At 66 h, the rats were sacrificed using cardiac puncture under terminal anaesthesia (isoflurane/oxygen), followed by immediate exsanguination of blood from the heart. Subsequently, an overdose of sodium pentobarbitone was administered using the same in situ puncture needle. Blood samples were collected in heparinised Eppendorf tubes and centrifuged at 3,000 rpm for 5 min. The plasma layer was collected and stored at −20° C. prior to analysis.

[2] = Single oral dose pharmacokinetics of atazanavir; set-up: species or system Wistar rats; settings: male, Wistar, rat, in vivo, 10 mg/kg
Experimental: All animal work was conducted in accordance with the Animals (Scientific Procedures) Act 1986 (ASPA) implemented by the UK Home Office. The rodents were housed with environmental enrichment and a 12 h light/dark cycle at 21° C.±2° C. Free access to food and water was provided at all times during acclimatisation. Following 7-days acclimatisation, adult male Wistar rats (280-330 g) were fasted overnight and dosed with 10 mg Kg^−1 atazanavir at 10 μCi/mg, either as a conventional [^3H]-atazanavir preparation (<5% DMSO) or as a [^3H]-^ATVSDNF68/T20 nanodispersion using a 7-cm curved gavage needle. Subsequently, blood samples were collected (0.2 ml) at 1, 2, 2.5, 3, 6 and 12 h post-dosing from the tail vein. At 24 h, the rats were sacrificed using cardiac puncture under terminal anaesthesia (isoflurane/oxygen), followed by immediate exsanguination of blood from the heart. Subsequently, an overdose of sodium pentobarbitone was administered using the same in situ puncture needle. Blood samples were collected in heparinised Eppendorf tubes and centrifuged at 3,000 rpm for 5 min. The plasma layer was collected and stored at −20° C. prior to analysis.

COC(=O)N[C@H](C(=O)N[C@@H](Cc1ccccc1)[C@@H](O)CN(Cc1ccc(-c2ccccn2)cc1)NC(=O)[C@@H](NC(=O)OC)C(C)(C)C)C(C)(C)C [Aqueous atazanavir, atazanavir]
AUC(0-t) ([1]; male, Wistar): 15500 ng·h/mL
Cmax ([1]; male, Wistar): 3090 ng/mL
Tmax ([1]; male, Wistar): 1 h
Cmin [1]: 1799 ng/mL
AUC(0-t) [2]: 60400 ng·h/mL
Cmax [2]: 4870 ng/mL
Cmin [2]: 1986 ng/mL
Tmax [2]: 2 h
